The nature of assay [1]: ABTS radical cation scavenging assay. Here is the method:
ABTS (2,2′-azinobis-3-ethylbenzothiazoline-6-sulfonate) assay
The radical scavenging capacity of antioxidants for the ABTS radical cation was evaluated following this method: ABTS was prepared by adding 7 mM solution of ABTS at pH 7.4 (5 mM NaH2PO4, 5 mM Na2HPO4, and 154 mM NaCl) with 2.5 mM potassium persulfate. The mixture was stored at room temperature for 16 h in the dark before use and prepared […]. Once diluted with persulfate buffer, the absorbance of the mixture yielded an absorbance value of 0.70 ± 0.05 units at 734 nm. Then, 20 µL of each tested sample was mixed with fresh ABTS solution (180 µL), then the absorbance was measured 6 min after the initial mixing. Ascorbic acid was used as a standard. The capacity of free radical scavenging was expressed as a percentage of the inhibition values. The percentage of inhibition is calculated using the same expression employed in the DPPH assay.

In another assay the target is T1, α-amylase (Homo sapiens, UniProt P04746).
T1 sequence (P04746 16-511): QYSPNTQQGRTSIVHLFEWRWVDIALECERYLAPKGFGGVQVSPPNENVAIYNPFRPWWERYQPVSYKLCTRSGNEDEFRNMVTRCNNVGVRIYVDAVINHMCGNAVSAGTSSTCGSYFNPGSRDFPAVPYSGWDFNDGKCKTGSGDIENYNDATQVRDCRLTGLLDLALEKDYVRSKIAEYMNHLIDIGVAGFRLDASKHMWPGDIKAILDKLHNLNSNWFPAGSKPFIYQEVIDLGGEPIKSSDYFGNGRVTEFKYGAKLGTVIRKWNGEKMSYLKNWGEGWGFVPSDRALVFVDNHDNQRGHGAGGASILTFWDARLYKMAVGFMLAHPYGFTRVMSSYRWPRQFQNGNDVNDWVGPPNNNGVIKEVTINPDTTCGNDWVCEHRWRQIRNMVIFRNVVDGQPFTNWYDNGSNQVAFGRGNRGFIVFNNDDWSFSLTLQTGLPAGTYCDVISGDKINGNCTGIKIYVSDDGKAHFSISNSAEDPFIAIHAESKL
In words: Anti-α-amylase activity (starch/DNS).

The subject of a further assay is OVCAR-3 cells. Description: Cytotoxic activity, MTT assay, OVCAR-3. In kind it is cell-based. To be noted: Homo sapiens, OVCAR-3, 72 h, read-out: IC50 OVCAR-3. Here is the method: (§1) The cancer cell lines used in this study were HCT116 (colorectal carcinoma), IGROV1 (ovarian cancer), OVCAR3 (ovarian cancer), and MCF7 (mammary gland/breast cancer). […] Cell lines were maintained in culture and were incubated at 37 °C in an incubator with 5% CO2 in a humidified atmosphere. All tests were established at 80% of confluence, and viability was estimated with a trypan blue exclusion assay.
(§2) The cytotoxic activities of molecules against cancer cell lines were evaluated using an MTT assay. The MTT colorimetric assay was performed using 96-well plates. Cells were seeded in a 96-well plate, at a concentration of 10 × 10^3 cells/well for HCT116 and 12 × 10^3 cells/well for MCF7, IGROV1, and OVAR. Adherent cells were dispatched and incubated at 37 °C overnight in a 5% CO2-enriched atmosphere. […] After that, the medium was removed, and cells were treated with 50 µL of 3-(4,5-dimethylthazolk-2-yl)-2,5-diphenyl tetrazolium bromide (MTT) solution (3 mg/mL in PBS) at 37 °C for 20 to 40 min. To dissolve the […], we added 80 µL of 100% DMSO. Optical density was measured at 540 nm. All tests were established in triplicate. […]
On the technique in general: Tetrazolium assays rely on reduction of a dye to a coloured formazan, in cell work by metabolically active cells.

Another assay relates to MCF7 cells. Description: Cytotoxic activity, MTT assay, MCF7. In kind it is cell-based, human. To be noted: Homo sapiens, MCF7, 72 h. Here is the method: Optical density was measured at 540 nm. All tests were established in triplicate.
The next assay concerns HCT116 cells. Description: Cytotoxic activity, MTT assay, HCT116. In kind it is cell-based, human. To be noted: Homo sapiens, HCT-116, 72 h, read-out: IC50 HCT116, MTT, 72 h. Here is the method: as §1, §2
For assay [2], the target named is T2, xanthine oxidase (XOD) (Homo sapiens, UniProt P47989). In words: biochemical. To be noted: read-out: Anti XOD IC50. Here is the method: Anti-xanthine oxidase activity was assayed spectrophotometrically under aerobic conditions. First, 50 µL (50 µg/mL) of samples were added to 60 µL of phosphate buffer (pH 7.5) and 30 µL of xanthine oxidase enzyme solution (0.01 units/mL in phosphate buffer; pH 7.5). After pre-incubation at 25 °C for 15 min, the reaction was initiated by the addition of 60 µL of xanthine substrate solution (prepared in the same buffer). The assay mixture was incubated at 25 °C for 5 min. […] The assay was performed in triplicate. […] Tests were carried out in triplicate.
T2 sequence (P47989 whole entry, species assumed): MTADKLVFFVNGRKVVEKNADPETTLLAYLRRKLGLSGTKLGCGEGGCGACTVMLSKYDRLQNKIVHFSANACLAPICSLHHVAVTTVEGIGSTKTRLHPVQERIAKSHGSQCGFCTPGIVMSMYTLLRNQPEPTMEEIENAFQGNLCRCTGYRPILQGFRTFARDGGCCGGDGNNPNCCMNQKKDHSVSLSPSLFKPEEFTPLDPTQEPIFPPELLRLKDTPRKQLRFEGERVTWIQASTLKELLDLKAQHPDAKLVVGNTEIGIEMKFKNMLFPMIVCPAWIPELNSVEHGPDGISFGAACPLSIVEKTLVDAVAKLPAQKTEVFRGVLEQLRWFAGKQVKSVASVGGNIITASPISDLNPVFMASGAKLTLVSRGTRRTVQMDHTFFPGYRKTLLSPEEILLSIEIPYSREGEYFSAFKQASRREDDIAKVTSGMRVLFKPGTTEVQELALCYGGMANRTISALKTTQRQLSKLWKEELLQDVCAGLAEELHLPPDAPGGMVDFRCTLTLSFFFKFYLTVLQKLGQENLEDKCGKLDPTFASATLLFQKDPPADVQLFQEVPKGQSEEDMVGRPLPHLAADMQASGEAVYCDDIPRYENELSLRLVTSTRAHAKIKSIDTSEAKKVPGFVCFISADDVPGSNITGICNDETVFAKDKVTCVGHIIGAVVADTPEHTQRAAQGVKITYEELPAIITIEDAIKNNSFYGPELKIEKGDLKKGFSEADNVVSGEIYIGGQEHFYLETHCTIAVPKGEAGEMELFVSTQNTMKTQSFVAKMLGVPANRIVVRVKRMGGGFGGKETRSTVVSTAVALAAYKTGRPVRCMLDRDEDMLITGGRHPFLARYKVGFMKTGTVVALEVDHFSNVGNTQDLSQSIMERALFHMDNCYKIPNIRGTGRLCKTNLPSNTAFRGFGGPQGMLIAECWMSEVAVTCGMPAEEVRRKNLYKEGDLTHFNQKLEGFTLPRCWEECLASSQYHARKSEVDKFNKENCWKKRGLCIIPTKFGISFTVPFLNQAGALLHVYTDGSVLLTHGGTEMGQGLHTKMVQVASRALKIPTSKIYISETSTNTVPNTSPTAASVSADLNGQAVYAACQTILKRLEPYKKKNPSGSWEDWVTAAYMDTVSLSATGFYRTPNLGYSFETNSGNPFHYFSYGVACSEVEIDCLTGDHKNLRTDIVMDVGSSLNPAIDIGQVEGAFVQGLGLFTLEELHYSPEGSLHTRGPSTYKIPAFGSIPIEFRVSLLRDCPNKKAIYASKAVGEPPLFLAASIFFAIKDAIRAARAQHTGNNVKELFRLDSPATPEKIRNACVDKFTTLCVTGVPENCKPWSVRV

In assay [3] the target is T2, xanthine oxidase (XOD). In kind it is biochemical. As to conditions: at 100 µM.
For assay [4], the target named is T3, acetylcholinesterase (AChE) (Homo sapiens, UniProt P22303). It is filed as biochemical. As to conditions: at 100 µM.
T3 sequence (P22303 32-614, species assumed): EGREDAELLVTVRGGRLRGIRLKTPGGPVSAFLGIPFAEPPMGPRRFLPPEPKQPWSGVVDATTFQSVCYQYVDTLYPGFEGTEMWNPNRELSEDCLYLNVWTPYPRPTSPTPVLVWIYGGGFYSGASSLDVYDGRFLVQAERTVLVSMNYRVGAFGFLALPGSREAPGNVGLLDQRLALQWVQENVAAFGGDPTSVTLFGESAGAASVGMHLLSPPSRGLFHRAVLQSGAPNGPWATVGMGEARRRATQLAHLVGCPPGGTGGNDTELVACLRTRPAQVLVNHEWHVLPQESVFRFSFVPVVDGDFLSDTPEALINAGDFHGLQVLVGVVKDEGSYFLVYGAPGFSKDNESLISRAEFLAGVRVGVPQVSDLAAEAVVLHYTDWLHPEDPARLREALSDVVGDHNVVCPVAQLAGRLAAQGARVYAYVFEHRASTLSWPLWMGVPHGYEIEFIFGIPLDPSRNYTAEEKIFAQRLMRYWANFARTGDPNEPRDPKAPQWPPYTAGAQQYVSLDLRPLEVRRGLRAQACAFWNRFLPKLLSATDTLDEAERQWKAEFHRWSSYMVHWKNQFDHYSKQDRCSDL
Assay [5] can be described thus: DPPH radical scavenging assay. Here is the method: DPPH• (1-1-diphenyl 2-picryl hydrazyl) assay
This method is based on the spectrophotometric assay using the stable radical, DPPH•, as a reagent. First, 20 µL of each sample (4 mg/mL) was mixed with 180 µL of 0.1 mM DPPH• in methanol, in plates, after an incubation of 25 min in the dark. Absorbance was measured at 517 nm. Ascorbic acid was used as the reference compound. The radical-scavenging activities of molecules, expressed as a percentage inhibition of DPPH•, were calculated according to the following formula: Inhibition (%) = [(A control − A sample)/A control] × 100 where A is the absorbance determined at 517 nm. The absorbance of the solvent and DPPH• radical without the molecule was measured as the control.

Another assay relates to SKOV-3 cells. In words: Cytotoxic activity, MTT assay, SKOV-3. In kind it is cell-based, human. To be noted: Homo sapiens, SK-OV-3, 72 h, read-out: IC50 SKOV-3, MTT, 72 h.
Assay [6] concerns the target T3, acetylcholinesterase (AChE). Description: biochemical. Here is the method:
The enzymatic activity was assessed via a modified colorimetric Ellman′s method. First, 50 µL of Tris-HCl buffer (pH 8), 25µL of a buffer solution of the sample (50 µg/mL), and 25 µL of an acetylcholinesterase (AChE) enzyme solution containing 2.8 U/mL were mixed. A reaction was then initiated via the addition of 125 µL of 3 mM […]. After incubation for 15 min at 25 °C, 25 µL of a solution of iodide acetylthiocholine15 mM was added to a 96-well microplate. […] Inhibition (%) was calculated in the following way: Inhibition (%) = [(A control − A sample)/A control] × 100, where (A sample) is the absorbance of the molecule containing the reaction and (A control) is the absorbance of the reaction control. Tests were carried out in triplicate.

Assay [7] concerns the target T4, superoxide dismutase (SOD) (Homo sapiens, UniProt P00441). In kind it is biochemical. As to conditions: at 100 µM.
Assay [8] concerns the target T4, superoxide dismutase (SOD). In words: biochemical. As to conditions: read-out: Anti SOD IC50. Here is the method: Pyrogallol auto-oxidation due to oxygen in the air can be inhibited by an enzyme that is naturally present in the body: superoxide dismutase (SOD). Furthermore, variations in the pyrogallol auto-oxidation rate in the presence of SOD were evaluated. Tests were carried out in triplicate. The objective was to find an inhibitor of the auto-oxidation of pyrogallol in the presence of a SOD enzyme solution. Samples were tested at a concentration of 50 µg/mL, followed by incubation for 4 min at 25 °C. […] The self-oxidation of pyrogallol was evaluated in the absence of the enzyme. For this, 30 µL of pyrogallol was added to 120 µL of tris buffer (in place of the SOD) (pH 8.5), then followed by the same steps of incubating a positive control (without the molecule); this was performed in the presence of 5% of DMSO to evaluate the percentage of SOD inhibition activity on the auto-oxidation of pyrogallol.

Structures are written as SMILES. Where two headings read alike, the source gives them in different places.

T4 sequence (P00441 whole entry): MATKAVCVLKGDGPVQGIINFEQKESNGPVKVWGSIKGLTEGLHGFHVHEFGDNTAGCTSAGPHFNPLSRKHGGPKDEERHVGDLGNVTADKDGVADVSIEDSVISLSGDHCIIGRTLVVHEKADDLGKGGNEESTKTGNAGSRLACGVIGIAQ
Protocol for α-amylase: The α-amylase inhibitory activity (%) value was defined as the percentage decrease in the maltose production rate over the control. […] After 15 min, this mixture was removed from the water bath and diluted with 900 µL of distilled water. The anti-α-amylase activity was determined by measuring the absorbance at 540 nm. Blank incubations were determined as the absorbance produced by samples where the enzyme was replaced with a buffer solution. […] The IC50 values were calculated from the mean values of the percentage of α--amylase inhibition data, determined in triplicate.

With `Cc1ccc2oc(-c3cccc(O)c3)cc(=O)c2c1` [Molecule M16, 3′-hydroxy-6-methylflavone], the IC50 in assay [1] was greater than 50 µM; at α-amylase, greater than 100 µM; with OVCAR-3 cells, greater than 50 µM; in the assay with MCF7 cells, greater than 100 µM; with HCT116 cells it was greater than 100 µM; at xanthine oxidase (XOD) [2] it was 2 ± 0.1 µM. In addition, the half-maximal inhibitory concentration (IC50) in assay [5] is greater than 100 µM; in the assay on SKOV-3 cells, 42.1 ± 1.5 µM; in assay [6] (read-out: Anti ACHE IC50) it was greater than 50 µM; in assay [8], greater than 100 µM. In addition, the “Anti XOD %” value at xanthine oxidase (XOD) [3] amounted to 83.5 ± 3.8%. In addition, the “Anti ACHE %” value in [4] came to 59.1 ± 1.5%. Also, in assay [7], the “Anti SOD %” value came out at 27.3 ± 3.2%.

`Cc1ccc(-c2cc(=O)c3cc(O)ccc3o2)cc1` [Molecule M17, 6-hydroxy-4′-methylflavone]: the IC50 in assay [1] is greater than 50 µM; against α-amylase, greater than 100 µM; with OVCAR-3 cells it was greater than 50 µM; in the assay with MCF7 cells it was greater than 50 µM; with HCT116 cells it was 40.4 ± 1.2 µM; on xanthine oxidase (XOD) [2], 0.8 ± 0.1 µM. Further, the concentration for half-maximal inhibition (IC50) is greater than 100 µM in assay [5], 43.8 ± 0.9 µM with SKOV-3 cells, greater than 50 µM in assay [6] (read-out: Anti ACHE IC50) and greater than 50 µM in [8]. Further, the “Anti XOD %” value on xanthine oxidase (XOD) [3] was 67.7 ± 2.1%. Moreover, the “Anti ACHE %” value in [4] amounted to 50.8 ± 4.1%. Moreover, the “Anti SOD %” value in assay [7] is on record as 80.9 ± 0.2%.

For the compound `COc1ccc(-c2cc(=O)c3c(O)cc(O[C@@H]4O[C@H](CO[C@@H]5O[C@@H](C)[C@H](O)[C@@H](O)[C@H]5O)[C@@H](O)[C@H](O)[C@H]4O)cc3o2)cc1O` [Molecule M19, 3′, 5,7-trihydroxy-4′-methoxyflavone 7-rutinoside], the IC50 was greater than 50 µM in [1]; 3.7 ± 0.3 µM against α-amylase; greater than 50 µM in the assay on OVCAR-3 cells; greater than 50 µM in the assay with MCF7 cells; greater than 50 µM in the assay with HCT116 cells; greater than 100 µM at xanthine oxidase (XOD) [2]. In addition, the IC50 was greater than 100 µM in assay [5], 40.1 ± 0.9 µM with SKOV-3 cells, greater than 100 µM in assay [6] and greater than 50 µM in assay [8]. At α-amylase (at 100 µM), the “Anti α-Amylase %” value was 60.6 ± 4.8%. Moreover, the “Anti XOD %” value at xanthine oxidase (XOD) [3] is recorded as 45.3 ± 3.2%. Moreover, the “Anti ACHE %” value in assay [4] is reported as 37.7 ± 4.6%. In addition, the “Anti SOD %” value in assay [7] is 57.8 ± 2.4%.

As to `CC1OC(Oc2c(-c3cc(O)c(O)c(O)c3)oc3cc(O)cc(O)c3c2=O)C(O)C(O)C1O` (stereo not drawn) [Molecule M20, myricitrin dihydrate], the IC50 in assay [1] is greater than 100 µM; against α-amylase it was greater than 100 µM; in the assay with OVCAR-3 cells, greater than 50 µM; with MCF7 cells, greater than 50 µM; in the assay with HCT116 cells, greater than 50 µM; on xanthine oxidase (XOD) [2] it was greater than 100 µM. For the same compound, the half-inhibitory concentration (IC50) in assay [5] is greater than 100 µM; with SKOV-3 cells, greater than 50 µM; in assay [6], greater than 50 µM; in assay [8], greater than 100 µM. The “ABTS Assay %” value in assay [1] (at 100 µM) was determined as 20.3 ± 3.2%. Besides, the “Anti XOD %” value on xanthine oxidase (XOD) [3] came out at 30.9 ± 2.5%. Moreover, the “Anti ACHE %” value in [4] is 51.8 ± 3.5%. In addition, the “Anti SOD %” value in assay [7] turned out to be 42.4 ± 1.1%.

As usually defined, the IC50 is the concentration that inhibits the measured activity by half.

(Values after article PMC10052652 (Molecules, 2023).)
